Test results as given in patent US20250388554A1, “ANTIBACTERIAL COMPOUNDS, METHOD OF PRODUCTION AND USE THEREOF” (priority 2024, published 2025).
≈ marks a conversion by molar mass, not a printed value.

Assays:
[1] = system: Mtb H37Rv; parameters: species or system Mycobacterium tuberculosis; conditions: in vivo; for bacterial burden in lungs vs untreated control (CFU) / bacterial burden in spleen vs untreated control (CFU): 100 mg/kg
[2] = system: Mtb H37Rv; test: Resazurin assay (REMA) / alamarBlue MIC; assay type: cell-based; conditions: Mycobacterium tuberculosis, minimal media
[3] = Acute oral toxicity study (OECD 425), 14 days; conditions: for serum levels of SGOT, SGPT, creatinine, and urea compared to the untreated group: all doses, day 14; for LD50: oral, single dose, mice; for body weight compared to the untreated group: single oral dose, female mice, monitored for 14 days
Experimental: Healthy CD-1 female mice with weight 34±4 grams were used. The animals were housed individually in cages and maintained in a standard laboratory environment. […] A limit dose of 2000 mg/kg body weight of compound was used involving three mice. Each mouse was treated with a single oral dose of 5, 50, 500, 2000 mg/kg body weight on Day 0. Animals were observed individually at least once during the first 30 min after dosing, periodically during the first 24 h and daily thereafter, for a total of 14 days for any clinical signs of toxicity or mortality. At the end of 14 day's observation period, the animals were anaesthetized, and their blood samples were collected through retro orbital bleeding for biochemical and histopathological studies, respectively. For biochemical analysis, blood was centrifuged at 4000 rpm at 4° C. for 10 min, serum was separated and Serum Glutamate Pyruvic Transaminase (SGPT), Serum Glutamate Oxaloacetic Transaminase (SGOT), creatinine, and, urea were estimated using a semi-automated Biochemical coralyzer. For histopathological studies, the animals were euthanized and the livers and kidneys were harvested and examined macroscopically. These organs were then preserved in 10% formalin made in PBS for histopathological examinations by standard techniques.
For this, the liver and kidney tissue samples were embedded into wax blocks. The wax blocks were subjected to microtome to generate sections, which were then stained with Hematoxylin and Eosin dyes at a commercial facility. The tissue sections were viewed in a bright field microscope at 40× magnification.

[4] = system: Mtb H37Rv in RAW 264.7 macrophages; test: Efficacy testing in Mtb infected macrophage model; assay type: cell-based, Mycobacterium tuberculosis; conditions: RAW 264.7, MOI=10, 3 days of treatment, 0-240 μM
[5] = molecular target: IGPD (Rv1601) (Mycobacterium tuberculosis, UniProt P9WML9); test: IGPD stopped-assay, IC50 study; assay type: biochemical
[6] = female, CD-1, mouse, in vivo, po, 2000 mg/kg, 14 days
[7] = single oral dose 5 mg/kg, 5 mice initial, 14 days
[8] = single oral dose 5 mg/kg, 5 mice, 14 days
[9] = single oral dose 50 mg/kg, 5 mice initial, 14 days
[10] = single oral dose 50 mg/kg, 5 mice, 14 days
[11] = single oral dose 500 mg/kg, 5 mice initial, 14 days
[12] = single oral dose 500 mg/kg, 5 mice, 14 days

IGPD (Rv1601), sequence (P9WML9 whole entry, looked up): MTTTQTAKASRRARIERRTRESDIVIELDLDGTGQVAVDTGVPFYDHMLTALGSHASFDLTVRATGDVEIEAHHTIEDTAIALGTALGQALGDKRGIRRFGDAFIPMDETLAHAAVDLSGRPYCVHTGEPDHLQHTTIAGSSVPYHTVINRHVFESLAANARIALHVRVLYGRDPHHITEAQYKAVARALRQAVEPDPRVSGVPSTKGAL

Structure (SMILES) | bacterial burden with supplementation of histidine [1] | bacterial burden in lungs vs untreated control (CFU) ([1]; po) | bacterial burden in spleen vs untreated control (CFU) ([1]; po) | MIC99 [2] [µM] | serum levels of SGOT, SGPT, creatinine, and urea compared to the untreated group [3] | kidney histology (H&E) ([3]; mouse, in vivo) | liver histology (H&E), FIG. 11 ([3]; mouse, in vivo) | LD50 [3] | Mice number final [3, 7] | Total Deaths (D) [3, 8] | Mice number final [3, 9] | Total Deaths (D) [3, 10] | Mice number final [3, 11] | Total Deaths (D) [3, 12] | body weight compared to the untreated group [3] | bacterial load in Mtb infected macrophages (CFU) [4] | IC50 [5] [µM] | other results
CC(C)C(N)c1ncnn1C (centres unmarked) [SF2, 2-methyl-1-(2-methyl-1,2,4-triazol-3-yl)propan-1-amine] | restored the bacterial burden to the untreated levels | no reduction in the bacterial burden | no reduction in the bacterial burden | 125 (≈ 19.3 µg/mL) | no significant changes | no pathological changes | no pathological changes | greater than 2000 mg/kg body weight | 5 | 0 | 5 | 0 | 5 | 0 | increased for all doses while a slight dip in weight for 5 mg/kg body weight on 7th day was observed | hundred-fold decline | 44.1 | bacterial load in lungs vs untreated control (CFU) ([1]; po, 200 mg/kg): significant decrease in the bacterial load; reduction in the bacterial load in spleen vs untreated control (CFU) ([1]; po, 200 mg/kg): not found to be statistically significant; Mice number final [3, 6]: 5; Total Deaths (D) [3, 6]: 0; clinical signs in surviving mice ([3]; mouse, in vivo): no clinical signs of adverse effects/toxicity
NCCSc1ncn[nH]1 [SF3, 2-(1H-1,2,4-triazol-5-ylsulfanyl)ethanamine] | restored the bacterial burden to the untreated levels | significant lowering of the bacterial burden | significant lowering of the bacterial burden | 500 (≈ 72.1 µg/mL) | no significant changes | no pathological changes | no pathological changes | below 5000 mg/kg body weight | 5 | 0 | 5 | 0 | 5 | 0 | decreased for 5, 500, and 2000 mg/kg body weight and increased for 5000 mg/kg body weight | did not reduce the bacterial load | 76.9 | clinical signs in surviving mice ([3]; oral 5, 50, 500 and 2000 mg/kg body weight, 14 days): no clinical signs of adverse effects/toxicity; clinical signs ([3]; single dose of 5000 mg/kg, after 12-24 h): slowness and weight decline; Mice number final ([3]; single oral dose 2000 mg/kg, 5 mice initial, 14 days): 3; Total Deaths (D) ([3]; single oral dose 2000 mg/kg, 5 mice, 14 days): 2; Mice number final ([3]; single oral dose 5000 mg/kg, 5 mice initial, 14 days): 2; Total Deaths (D) ([3]; single oral dose 5000 mg/kg, 5 mice, 14 days): 3
CC(N)c1ncnn1C (centres unmarked) [SF1, 1-(2-methyl-1,2,4-triazol-3-yl)ethanamine] |  | no reduction in the bacterial burden | no reduction in the bacterial burden | 31.2 (≈ 3.94 µg/mL) |  |  |  |  |  |  |  |  |  |  |  | approximately a thousand-fold decline | 33.5 | 
